Earlier results as cited in publication PMC9851200, “Multiparameter phenotypic screening for endogenous TFEB and TFE3 translocation identifies novel chemical series modulating lysosome function” (Autophagy, 2022).

How the values were obtained:
Design in all cases: method as in original PKIS2 published data
[1] = target: T1, kinases (KINOMEscan panel) (Homo sapiens, UniProt Q6XUX3); details: DSTYK; Published KINOMEscan; ref original PKIS2 published data; cited from earlier work
T1 sequence (Q6XUX3 1-929): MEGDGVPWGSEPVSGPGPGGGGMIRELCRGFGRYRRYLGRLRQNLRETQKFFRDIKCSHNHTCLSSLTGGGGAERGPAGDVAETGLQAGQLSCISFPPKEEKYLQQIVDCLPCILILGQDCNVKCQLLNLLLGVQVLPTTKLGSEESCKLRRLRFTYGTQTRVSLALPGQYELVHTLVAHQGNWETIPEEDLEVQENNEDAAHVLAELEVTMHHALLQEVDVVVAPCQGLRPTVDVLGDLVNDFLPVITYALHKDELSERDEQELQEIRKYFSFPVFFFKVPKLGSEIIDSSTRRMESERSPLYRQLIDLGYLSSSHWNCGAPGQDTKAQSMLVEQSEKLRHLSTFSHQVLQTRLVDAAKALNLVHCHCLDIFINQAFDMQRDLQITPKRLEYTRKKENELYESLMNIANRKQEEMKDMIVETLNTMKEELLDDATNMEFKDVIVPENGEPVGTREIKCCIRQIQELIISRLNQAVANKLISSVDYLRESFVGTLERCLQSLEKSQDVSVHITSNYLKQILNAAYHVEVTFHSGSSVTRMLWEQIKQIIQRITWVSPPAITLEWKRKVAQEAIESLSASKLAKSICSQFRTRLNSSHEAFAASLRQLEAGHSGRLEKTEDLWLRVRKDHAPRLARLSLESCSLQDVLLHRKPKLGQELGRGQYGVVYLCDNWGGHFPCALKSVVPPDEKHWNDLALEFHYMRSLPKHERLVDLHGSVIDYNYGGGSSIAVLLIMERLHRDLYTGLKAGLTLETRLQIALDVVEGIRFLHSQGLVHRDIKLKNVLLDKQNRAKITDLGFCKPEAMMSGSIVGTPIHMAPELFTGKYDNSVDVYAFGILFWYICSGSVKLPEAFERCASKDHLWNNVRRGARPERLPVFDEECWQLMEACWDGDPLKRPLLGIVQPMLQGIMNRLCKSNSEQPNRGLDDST

[2] = target: kinases (KINOMEscan panel) (Homo sapiens, UniProt P07948); details: Published KINOMEscan; ref original PKIS2 published data; cited from earlier work
Sequence of kinases (KINOMEscan panel) (Homo sapiens, UniProt P07948) (P07948 whole entry): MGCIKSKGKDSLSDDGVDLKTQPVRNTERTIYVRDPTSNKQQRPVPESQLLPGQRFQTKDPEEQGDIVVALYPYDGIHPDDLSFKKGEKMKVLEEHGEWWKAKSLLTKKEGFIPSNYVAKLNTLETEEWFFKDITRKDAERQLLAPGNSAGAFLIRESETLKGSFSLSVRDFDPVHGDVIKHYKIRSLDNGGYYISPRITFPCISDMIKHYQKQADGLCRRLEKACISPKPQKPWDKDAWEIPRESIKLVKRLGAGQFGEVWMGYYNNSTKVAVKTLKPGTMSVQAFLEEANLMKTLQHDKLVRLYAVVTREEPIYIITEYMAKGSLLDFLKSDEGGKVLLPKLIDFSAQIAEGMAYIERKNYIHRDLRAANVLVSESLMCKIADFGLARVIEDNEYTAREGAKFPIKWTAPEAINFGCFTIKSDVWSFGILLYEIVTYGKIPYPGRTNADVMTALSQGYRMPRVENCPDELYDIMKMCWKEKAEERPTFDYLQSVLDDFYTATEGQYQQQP

[3] = target: kinases (KINOMEscan panel) (Homo sapiens, UniProt Q15375); details: EPHA7; Published KINOMEscan; ref original PKIS2 published data; cited from earlier work
Sequence of kinases (KINOMEscan panel) (Homo sapiens, UniProt Q15375) (Q15375 28-998): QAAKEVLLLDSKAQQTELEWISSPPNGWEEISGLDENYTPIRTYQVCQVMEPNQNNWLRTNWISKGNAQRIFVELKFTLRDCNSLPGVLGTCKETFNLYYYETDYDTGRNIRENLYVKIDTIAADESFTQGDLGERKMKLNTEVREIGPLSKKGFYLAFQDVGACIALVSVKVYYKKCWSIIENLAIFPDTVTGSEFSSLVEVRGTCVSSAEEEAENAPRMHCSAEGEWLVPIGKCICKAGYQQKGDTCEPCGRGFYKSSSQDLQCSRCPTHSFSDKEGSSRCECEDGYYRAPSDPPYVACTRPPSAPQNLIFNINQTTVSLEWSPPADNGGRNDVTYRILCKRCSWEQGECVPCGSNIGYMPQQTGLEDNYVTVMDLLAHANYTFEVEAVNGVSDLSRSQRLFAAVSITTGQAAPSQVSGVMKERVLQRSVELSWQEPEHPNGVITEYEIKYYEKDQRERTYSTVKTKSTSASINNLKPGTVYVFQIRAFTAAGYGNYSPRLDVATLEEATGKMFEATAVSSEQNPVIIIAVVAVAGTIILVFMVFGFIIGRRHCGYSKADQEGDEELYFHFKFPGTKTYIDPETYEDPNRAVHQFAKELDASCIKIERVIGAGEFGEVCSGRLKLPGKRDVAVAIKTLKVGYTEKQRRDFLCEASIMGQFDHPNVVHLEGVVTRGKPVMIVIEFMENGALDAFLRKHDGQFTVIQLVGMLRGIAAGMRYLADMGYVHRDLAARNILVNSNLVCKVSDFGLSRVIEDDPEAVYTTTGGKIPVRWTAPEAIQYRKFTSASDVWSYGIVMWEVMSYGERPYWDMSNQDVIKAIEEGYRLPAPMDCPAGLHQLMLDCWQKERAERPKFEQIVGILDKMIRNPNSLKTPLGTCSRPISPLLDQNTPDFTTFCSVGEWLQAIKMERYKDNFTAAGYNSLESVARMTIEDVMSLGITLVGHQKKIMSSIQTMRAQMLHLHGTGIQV

[4] = target: T2, kinases (KINOMEscan panel) (Homo sapiens, UniProt O14976); details: kinase GAK; Published KINOMEscan; ref original PKIS2 published data; cited from earlier work
T2 sequence (O14976 1-1311): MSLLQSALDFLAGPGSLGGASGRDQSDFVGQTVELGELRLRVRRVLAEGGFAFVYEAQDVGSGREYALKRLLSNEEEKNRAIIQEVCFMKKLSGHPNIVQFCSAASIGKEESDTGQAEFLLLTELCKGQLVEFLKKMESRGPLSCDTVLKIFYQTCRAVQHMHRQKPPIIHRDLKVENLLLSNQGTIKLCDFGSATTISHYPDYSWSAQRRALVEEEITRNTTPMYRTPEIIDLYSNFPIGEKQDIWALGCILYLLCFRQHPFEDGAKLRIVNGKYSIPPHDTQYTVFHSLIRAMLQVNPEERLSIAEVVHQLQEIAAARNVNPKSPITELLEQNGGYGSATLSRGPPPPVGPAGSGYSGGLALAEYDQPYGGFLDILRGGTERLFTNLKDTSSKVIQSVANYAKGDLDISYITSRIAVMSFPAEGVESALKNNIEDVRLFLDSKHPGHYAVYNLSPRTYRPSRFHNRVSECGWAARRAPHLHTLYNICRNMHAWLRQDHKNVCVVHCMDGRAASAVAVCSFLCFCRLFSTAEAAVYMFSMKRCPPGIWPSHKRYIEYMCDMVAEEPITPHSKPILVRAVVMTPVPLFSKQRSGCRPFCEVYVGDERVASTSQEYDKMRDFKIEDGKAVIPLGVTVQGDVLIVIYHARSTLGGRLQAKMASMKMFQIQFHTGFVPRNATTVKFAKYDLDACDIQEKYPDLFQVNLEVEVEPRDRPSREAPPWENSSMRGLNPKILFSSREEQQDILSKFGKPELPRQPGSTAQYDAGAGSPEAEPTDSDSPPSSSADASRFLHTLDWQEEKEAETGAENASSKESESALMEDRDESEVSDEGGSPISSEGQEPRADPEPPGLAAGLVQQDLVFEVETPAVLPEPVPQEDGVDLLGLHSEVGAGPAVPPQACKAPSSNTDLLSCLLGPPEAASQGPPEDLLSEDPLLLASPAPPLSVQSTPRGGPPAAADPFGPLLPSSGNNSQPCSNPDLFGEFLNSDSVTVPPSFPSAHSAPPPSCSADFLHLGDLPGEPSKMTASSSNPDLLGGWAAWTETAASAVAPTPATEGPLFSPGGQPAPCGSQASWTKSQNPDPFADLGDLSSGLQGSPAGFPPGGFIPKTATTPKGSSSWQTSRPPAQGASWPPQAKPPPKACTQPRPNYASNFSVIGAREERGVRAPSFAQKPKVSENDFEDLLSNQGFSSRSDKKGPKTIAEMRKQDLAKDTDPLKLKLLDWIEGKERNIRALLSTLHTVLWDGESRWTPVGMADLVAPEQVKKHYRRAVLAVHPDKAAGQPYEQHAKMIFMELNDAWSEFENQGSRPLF

Cc1cccc(-c2nc(Nc3ccncc3)c3ccccc3n2)n1 [NK215]
0: KINOMEscan DSTYK [1] | KINOMEscan LYN [2] | KINOMEscan EPHA7 [3] | KINOMEscan GAK [4]
